Assay results as given in patent US11021457B2, “Class of isoindolone-imide ring-1,3-dione-2-ene compounds, composition and use thereof” (WIGEN BIOMEDICINE TECHNOLOGY (SHANGHAI) CO., LTD., priority 2017, dated 2021).

How the values were obtained:
SU-DHL6 = assay: Inhibition of tumor cell proliferation, CellTiter-Glo, SU-DHL6; type: cell-based; details: compound concentration 50 μM, 72 hours
How it was run: (§1)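 Cells seeded at 2000-10000 per well, treated immediately (suspension) or after adherence (adherent) and cultured at 37° C, 5% CO2. Viability read by CellTiter-Glo at 72 h as blank-corrected survival rate vs control. Scored at 50 μM compound: survival 60-<90% +, >30-60% ++, ≤30% +++.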

MDA-MB-453 = assay: Inhibition of tumor cell proliferation, CellTiter-Glo, MDA-MB-453; type: cell-based; details: compound concentration 50 μM, 72 hours
How it was run: as §1

LC3B = LC3B (Homo sapiens (Human), UniProt Q9GZQ8); assay: Fluorescence polarization experiment targeting LC3B (GST-LC3B with FITC-labeled peptide); details: GST-LC3B 180 nM, FITC-labeled peptide 18 nM, 25° C.
RPMI-8226 = assay: Inhibition of tumor cell proliferation, CellTiter-Glo, RPMI-8226; type: cell-based; details: compound concentration 50 μM, 72 hours
How it was run: as §1

K562 = assay: Inhibition of tumor cell proliferation, CellTiter-Glo, K562; type: cell-based; details: compound concentration 50 μM, 72 hours
How it was run: as §1

BxPC-3 = assay: Inhibition of tumor cell proliferation, CellTiter-Glo, BxPC-3; type: cell-based; details: compound concentration 50 μM, 72 hours
How it was run: as §1

A549 = assay: Inhibition of tumor cell proliferation, CellTiter-Glo, A549; type: cell-based; details: compound concentration 50 μM, 72 hours
How it was run: as §1

Row | SMILES | Inhibitory activity against proliferation (cell survival rate) SU-DHL6 (SU-DHL6) | Inhibitory activity against proliferation (cell survival rate) MDA-MB-453 (MDA-MB-453) | IC50 (LC3B) | Inhibitory activity against proliferation (cell survival rate) RPMI-8226 (RPMI-8226) | Inhibitory activity against proliferation (cell survival rate) K562 (K562) | Inhibitory activity against proliferation (cell survival rate) BxPC-3 (BxPC-3) | Inhibitory activity against proliferation (cell survival rate) A549 (A549)
1 | O=C1CCC(N2Cc3c(NC=C4C(=O)CC(c5cc6[nH]ccc6cc5Cl)CC4=O)cccc3C2=O)C(=O)N1 (stereo not drawn) [Compound 151] | +++ (survival rate (%)≤30) | +++ (survival rate (%)≤30) | < 3 µM | +++ (survival rate (%)≤30) | +++ (survival rate (%)≤30) | + (60≤survival rate (%)<90) | + (60≤survival rate (%)<90)
2 | O=C1CCC(N2Cc3c(NC=C4C(=O)CC(c5cccc6[nH]ncc56)CC4=O)cccc3C2=O)C(=O)N1 (stereo not drawn) [Compound 39] | ++ (30<survival rate (%)≤60) | +++ (survival rate (%)≤30) | < 3 µM | + (60≤survival rate (%)<90) | +++ (survival rate (%)≤30) | ++ (30<survival rate (%)≤60) | + (60≤survival rate (%)<90)
3 | O=C1CCC(N2Cc3c(NC=C4C(=O)CC(c5ccc(C(F)(F)F)cc5)CC4=O)cccc3C2=O)C(=O)N1 (stereo not drawn) [Compound 21] | + (60≤survival rate (%)<90) | + (60≤survival rate (%)<90) | < 3 µM | + (60≤survival rate (%)<90) | ++ (30<survival rate (%)≤60) | + (60≤survival rate (%)<90) | ++ (30<survival rate (%)≤60)
4 | O=C1CCC(N2Cc3c(NC=C4C(=O)CC(c5c(Br)ccc6[nH]cc(C(F)(F)F)c56)CC4=O)cccc3C2=O)C(=O)N1 (stereo not drawn) [Compound 16] | + (60≤survival rate (%)<90) | + (60≤survival rate (%)<90) | < 3 µM | +++ (survival rate (%)≤30) | + (60≤survival rate (%)<90) | + (60≤survival rate (%)<90) | + (60≤survival rate (%)<90)
5 | O=C1CCC(N2Cc3c(NC=C4C(=O)CC(c5ccc(F)cc5Br)CC4=O)cccc3C2=O)C(=O)N1 (stereo not drawn) [Compound 17] | + (60≤survival rate (%)<90) | + (60≤survival rate (%)<90) | < 3 µM | +++ (survival rate (%)≤30) | + (60≤survival rate (%)<90) | + (60≤survival rate (%)<90) | ++ (30<survival rate (%)≤60)
6 | O=C1CCC(N2Cc3c(NC=C4C(=O)CC(c5ccc(Cl)cc5F)CC4=O)cccc3C2=O)C(=O)N1 (stereo not drawn) [Compound 145] | +++ (survival rate (%)≤30) | +++ (survival rate (%)≤30) | < 3 µM | ++ (30<survival rate (%)≤60) | ++ (30<survival rate (%)≤60) | + (60≤survival rate (%)<90) | +++ (survival rate (%)≤30)
7 | CC(C)[C@H](NC=C1C(=O)CC(c2ccccc2)CC1=O)C(=O)N[C@@H](CCCNC(N)=O)C(=O)Nc1cccc2c1CN(C1CCC(=O)NC1=O)C2=O (stereo partly drawn) [Compound 59] | +++ (survival rate (%)≤30) | + (60≤survival rate (%)<90) | 100 to 1000 µM | +++ (survival rate (%)≤30) | +++ (survival rate (%)≤30) | ++ (30<survival rate (%)≤60) | +++ (survival rate (%)≤30)
8 | O=C1CCC(N2Cc3c(NC=C4C(=O)CC(c5cc(C(F)(F)F)ccc5Cl)CC4=O)cccc3C2=O)C(=O)N1 (stereo not drawn) [Compound 144] | +++ (survival rate (%)≤30) | +++ (survival rate (%)≤30) | < 3 µM | +++ (survival rate (%)≤30) | +++ (survival rate (%)≤30) | + (60≤survival rate (%)<90) | + (60≤survival rate (%)<90)
9 | O=C1CCC(N2Cc3c(NC=C4C(=O)CC(c5c[nH]c6cccc(Cl)c56)CC4=O)cccc3C2=O)C(=O)N1 (stereo not drawn) [Compound 150] | +++ (survival rate (%)≤30) | +++ (survival rate (%)≤30) | < 3 µM | ++ (30<survival rate (%)≤60) | ++ (30<survival rate (%)≤60) | + (60≤survival rate (%)<90) | +++ (survival rate (%)≤30)
10 | Cc1ccc(C2CC(=O)C(=CNc3cccc4c3CN(C3CCC(=O)NC3=O)C4=O)C(=O)C2)c(Br)c1 (stereo not drawn) [Compound 20] | ++ (30<survival rate (%)≤60) | + (60≤survival rate (%)<90) | < 3 µM | + (60≤survival rate (%)<90) | ++ (30<survival rate (%)≤60) | + (60≤survival rate (%)<90) | ++ (30<survival rate (%)≤60)
11 | O=C1CCC(N2Cc3c(NC(=C4C(=O)CC(c5ccccc5)CC4=O)c4ccccc4)cccc3C2=O)C(=O)N1 (stereo not drawn) [Compound 75] | +++ (survival rate (%)≤30) | +++ (survival rate (%)≤30) | 100 to 1000 µM | +++ (survival rate (%)≤30) | +++ (survival rate (%)≤30) | + (60≤survival rate (%)<90) | +++ (survival rate (%)≤30)
12 | O=C1CCC(N2Cc3c(NC=C4C(=O)CC(c5cccc6[nH]cc(C(F)(F)F)c56)CC4=O)cccc3C2=O)C(=O)N1 (stereo not drawn) [Compound 15] | ++ (30<survival rate (%)≤60) | + (60≤survival rate (%)<90) | < 3 µM | +++ (survival rate (%)≤30) | + (60≤survival rate (%)<90) | ++ (30<survival rate (%)≤60) | + (60≤survival rate (%)<90)
13 | CC(C)[C@H](NC(=O)CCC(=O)OCCN1CCN(CCNC=C2C(=O)CC(c3ccccc3)CC2=O)CC1)C(=O)N[C@@H](CCCNC(N)=O)C(=O)Nc1ccc(COC(=O)Nc2cccc3c2CN(C2CCC(=O)NC2=O)C3=O)cc1 (stereo partly drawn) [Compound 89] | ++ (30<survival rate (%)≤60) | +++ (survival rate (%)≤30) | 15 to 100 µM | ++ (30<survival rate (%)≤60) | ++ (30<survival rate (%)≤60) | + (60≤survival rate (%)<90) | ++ (30<survival rate (%)≤60)
14 | O=C1CCC(N2C(=O)c3cccc(NC=C4C(=O)CC(c5cccc6[nH]cc(Cl)c56)CC4=O)c3C2=O)C(=O)N1 (stereo not drawn) [Compound 12] | + (60≤survival rate (%)<90) | + (60≤survival rate (%)<90) | < 3 µM | + (60≤survival rate (%)<90) | + (60≤survival rate (%)<90) | + (60≤survival rate (%)<90) | + (60≤survival rate (%)<90)
15 | O=C1CCC(N2Cc3c(NC=C4C(=O)CC(c5cccc(Cl)c5Cl)CC4=O)cccc3C2=O)C(=O)N1 (stereo not drawn) [Compound 7] | +++ (survival rate (%)≤30) | ++ (30<survival rate (%)≤60) | < 3 µM | ++ (30<survival rate (%)≤60) | ++ (30<survival rate (%)≤60) | + (60≤survival rate (%)<90) | ++ (30<survival rate (%)≤60)
